Literature values, collected in patent US7972386B2, “Bleaching of substrates” (Conopco, Inc., priority 2005, dated 2011).

Conditions: at 20° C.

water solubility: 10.8 g per litre
Structure (SMILES): CN1CCN(C)CCN(C)CC1.CN1CCN(C)CCN(C)CC1.F[P-](F)(F)(F)(F)F.F[P-](F)(F)(F)(F)F.O.[Mn+4].[Mn+4].[O-2].[O-2].[O-2] [[Mn2O3(Me3-TACN)2](PF6)2•H2O, [Mn2O3(Me3-TACN)2] (PF6)2.H2O]
